# Results as given in PMC2580030 (PLoS ONE, 2008).
# Biological target: T1, HLA-DR1 (Homo sapiens, UniProt P01903+P01911, A100R/D57E/F55L/F60I/F76Y/I96L/L162R/M171V/P40L/Q125E/R42F/V115G/Y59C)
# T1 construct: made in house; host or cells: stably transfected Drosophila S2 insect cell lines (DR1 and DM separately)
# Type: binding
sequence,measurement,value
"PVSKMRMATPLLMQA [CLIP, residues 87–101 of the CLIP peptide]",largest CLIP/DR1 complex dissociation measured,~55%
same,t 1/2 of CLIP dissociation from DR1,approximately 80 min
